# Assay results reported in patent US10973861B2, “Compositions and methods” (priority 2013, dated 2021).
# Tested on: C. difficile
# Assay: Mouse model of C. difficile infection, bacterial compositions given by oral gavage on day −1 (Example 1)
# Type: in vivo, mice
# Conditions: positive control, oral gavage on days −1 to 4
compound,measurement,value
CN[C@H](CC(C)C)C(=O)N[C@H]1C(=O)N[C@@H](CC(N)=O)C(=O)N[C@H]2C(=O)N[C@H]3C(=O)N[C@H](C(=O)N[C@H](C(=O)O)c4cc(O)cc(O)c4-c4cc3ccc4O)[C@H](O)c3ccc(c(Cl)c3)Oc3cc2cc(c3O[C@@H]2O[C@H](CO)[C@@H](O)[C@H](O)[C@H]2O[C@H]2C[C@](C)(N)[C@H](O)[C@H](C)O2)Oc2ccc(cc2Cl)[C@H]1O [Vancomycin],"weight loss, clinical signs of disease, and C. difficile shedding (in words)",protects against these outcomes
